Test results from patent US20150342194A1, “NON-PHYTOTOXIC COMPOSITE POLYMER FILM BARRIER AS A REPELLENT FOR CONTROLLING INFECTION” (priority 2014, published 2015).

Tests used:
Vinca sp = experiment: Phytotoxicity (plant tissue injury) testing on Vinca sp.; format: in vivo; parameters: key: −: No plant tissue damage; +: Minimal; ++: moderate; +++: severe plant tissue damage
Description: FIGS. 2A to 2C illustrate phytotoxicity (plant tissue injury) results. FIG. 2A illustrates untreated, FIG. 2B illustrates OSCF nanoparticle, and FIG. 2C illustrates OSCF nanogel film materials, sprayed on Vinca. sp. Under green-house conditions, approximately 5 mL of synthesized formula was sprayed on plants at 7:30 AM on the test day. After 72 hrs, all treatments were non-phytotoxic (−) to plants.
FIG. 1 illustrates digital photographs of some representative citrus leaf surfaces before and after rigorous spray washing with water (simulating over 6 inches of rainfall). Phytotoxicity studies were carried out using Vinca sp. (an ornamental plant, highly susceptible to phytotoxicity; purchased from Home Depot).
(§1) Tables 2 and 3, Example 2, illustrate phytotoxicity testing of embodiments of the present disclosure.

Tomato sp = experiment: Phytotoxicity testing on Tomato sp; format: in vivo; parameters: key: −: No plant tissue damage; +: Minimal; ++: moderate; +++: severe plant tissue damage
Description: as §1

Citrus (Persian Lime) = experiment: Phytotoxicity testing on Citrus (Persian Lime); format: in vivo; parameters: key: −: No plant tissue damage; +: Minimal; ++: moderate; +++: severe plant tissue damage
Description: as §1

[1] = system: Asian Citrus Psyllid (ACP, Diaphorina citri); conditions: field trials, literature [7-9]; cited from earlier work
[2] = system: Asian Citrus Psyllid (ACP, Diaphorina citri); conditions: chemical repellants, literature [11-13]; cited from earlier work

O=S(=O)([O-])[O-].[Cu+2] [CuSO4]
Phytotoxicity, plant tissue damage (Vinca sp; 24 hr, Table 2): +
Phytotoxicity, plant tissue damage (Vinca sp; 24 hr, Table 3): +
Phytotoxicity, plant tissue damage (Vinca sp; 48 hr, Table 2): ++
Phytotoxicity, plant tissue damage (Vinca sp; 48 hr, Table 3): ++
Phytotoxicity, plant tissue damage (Vinca sp; 72 hr, Table 2): +++
Phytotoxicity, plant tissue damage (Vinca sp; 72 hr, Table 3): +++
Phytotoxicity, plant tissue damage (Tomato sp; 24 hr): +
Phytotoxicity, plant tissue damage (Tomato sp; 48 hr): ++
Phytotoxicity, plant tissue damage (Tomato sp; 72 hr): +++
Phytotoxicity, plant tissue damage (Citrus (Persian Lime); 24 hr): +
Phytotoxicity, plant tissue damage (Citrus (Persian Lime); 48 hr): ++
Phytotoxicity, plant tissue damage (Citrus (Persian Lime); 72 hr): +++

CCOP(=S)(OCC)Oc1nc(Cl)c(Cl)cc1Cl [chlorpyrifos]
Controlling ACP populations [1]: effective in controlling ACP populations

CN/C(=N\[N+](=O)[O-])NCc1cnc(Cl)s1 [clothianidin]
Controlling ACP populations [1]: effective in controlling ACP populations

CSSC [dimethyldisulfide (DMDS), dimethyldisulfide]
ACP repellant properties [2]: moderate ACP repellant properties

CC1(C)C(C(=O)OC(C#N)c2cccc(Oc3ccccc3)c2)C1(C)C (stereo not drawn) [fenpropathrin]
Controlling ACP populations [1]: effective in controlling ACP populations

O=[N+]([O-])NC1=NCCN1Cc1ccc(Cl)nc1 [imidacloprid]
Controlling ACP populations [1]: effective in controlling ACP populations

CN1COCN(Cc2cnc(Cl)s2)/C1=N\[N+](=O)[O-] [thiamethoxam]
Controlling ACP populations [1]: effective in controlling ACP populations
